Article PMC8421423, “Cellular model system to dissect the isoform-selectivity of Akt inhibitors” (Nature Communications, 2021)
Several values for one entry are separate records, joined by “and”; a condition that tells them apart may be missing. Equal values may be shown once. Read-outs that look alike come from different tables or passages of the source. Blank lines part the entries; values can stand above or below the compound they belong to.

What was measured:
Akt2 [1] = target: T1, Akt2 (Homo sapiens, UniProt P31751); assay: PhosphoSens continuous fluorometric kinetic enzyme assay
T1 sequence (P31751 whole entry): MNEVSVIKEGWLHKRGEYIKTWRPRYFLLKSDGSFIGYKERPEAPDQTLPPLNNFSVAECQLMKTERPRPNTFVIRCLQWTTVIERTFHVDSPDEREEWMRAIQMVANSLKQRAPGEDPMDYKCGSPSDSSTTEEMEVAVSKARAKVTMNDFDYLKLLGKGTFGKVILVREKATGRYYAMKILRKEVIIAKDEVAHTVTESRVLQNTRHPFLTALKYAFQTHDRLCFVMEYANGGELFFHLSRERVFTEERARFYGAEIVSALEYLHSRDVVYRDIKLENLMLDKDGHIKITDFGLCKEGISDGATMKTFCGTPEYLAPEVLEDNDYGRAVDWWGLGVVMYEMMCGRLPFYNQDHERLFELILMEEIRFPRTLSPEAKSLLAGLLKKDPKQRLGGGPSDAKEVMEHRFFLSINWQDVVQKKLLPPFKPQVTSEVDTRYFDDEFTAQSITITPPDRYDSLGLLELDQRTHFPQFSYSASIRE
Experimental: (§1) By addition of either 8 nM Akt1, 2 nM Akt2, or 5 nM Akt3 (final concentrations) the reactions were initiated. […] Afterwards the kobs-values were plotted versus the inhibitor concentrations [I] and then fit to the following hyperbolic Eq.

parental Ba/F3 cells = assay: CellTiter-Glo cell viability assay; assay type: cell-based, murine
Experimental: (§2) On day 0, cells were plated into white 384-well cell culture plates (Greiner Bio-One) using a Multidrop reagent dispenser (Thermo Fisher Scientific) at cell numbers that ensure linear and optimal luminescent signal intensity (Ba/F3myr-Akt1: 600 cells/well, Ba/F3myr-Akt2: 800 cells/well, Ba/F3myr-Akt3: 800 cells/well). […] Cell viability was analyzed on day 4 using the CellTiter-Glo Assay (Promega) as per the manufacturer’s instructions. […] All experimental points were measured in duplicates for each plate and were replicated in at least three plates.

Ba/F3^myr-Akt2 cells = assay: CellTiter-Glo cell viability assay
Experimental: as §2

Ba/F3^myr-Akt1 cells = assay: CellTiter-Glo cell viability assay; settings: for Log ratio EC50 [Akt] / EC50 [Akt], Akt1 / Akt2: cell viability assay Ba/F3 myr-Akt cells, log units
Experimental: as §2

Akt1 [2] = target: T2, Akt1 (Homo sapiens, UniProt P31749); assay: STK HTRF KinEASE activity-based assay (IC50); settings: for Log ratio IC50 [Akt] / IC50 [Akt], Akt1 / Akt2: biochemical activity based assay, log units
T2 sequence (P31749 whole entry): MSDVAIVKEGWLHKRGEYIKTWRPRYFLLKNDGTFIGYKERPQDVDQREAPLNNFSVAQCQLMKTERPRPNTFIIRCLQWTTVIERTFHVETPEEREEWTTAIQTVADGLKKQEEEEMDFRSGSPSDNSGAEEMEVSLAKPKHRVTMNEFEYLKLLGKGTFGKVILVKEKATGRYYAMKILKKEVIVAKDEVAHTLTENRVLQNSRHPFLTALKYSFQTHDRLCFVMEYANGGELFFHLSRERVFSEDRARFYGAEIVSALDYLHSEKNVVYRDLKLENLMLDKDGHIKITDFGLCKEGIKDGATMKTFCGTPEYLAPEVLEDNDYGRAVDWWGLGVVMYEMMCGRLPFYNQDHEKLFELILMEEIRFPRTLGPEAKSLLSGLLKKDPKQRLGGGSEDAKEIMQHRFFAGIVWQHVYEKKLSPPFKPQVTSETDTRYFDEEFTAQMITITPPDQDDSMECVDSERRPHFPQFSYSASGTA

Akt3 = Akt3 (Homo sapiens, UniProt Q9Y243); assay: STK HTRF KinEASE activity-based assay (IC50)
Chain of Akt3 (Q9Y243 whole entry): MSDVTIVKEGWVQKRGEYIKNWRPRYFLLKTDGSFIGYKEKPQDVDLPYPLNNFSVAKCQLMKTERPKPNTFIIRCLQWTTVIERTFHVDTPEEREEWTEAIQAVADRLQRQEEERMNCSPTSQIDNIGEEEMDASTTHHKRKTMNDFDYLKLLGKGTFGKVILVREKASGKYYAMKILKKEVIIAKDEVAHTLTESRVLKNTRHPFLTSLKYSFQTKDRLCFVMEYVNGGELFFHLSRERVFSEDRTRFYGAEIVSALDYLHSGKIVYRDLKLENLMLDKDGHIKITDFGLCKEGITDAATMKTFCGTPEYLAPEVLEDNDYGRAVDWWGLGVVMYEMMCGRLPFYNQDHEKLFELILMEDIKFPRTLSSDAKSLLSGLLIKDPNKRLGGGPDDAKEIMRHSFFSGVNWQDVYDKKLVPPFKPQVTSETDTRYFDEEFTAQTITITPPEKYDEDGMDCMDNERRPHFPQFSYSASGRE

Akt1 [3] = target: T2, Akt1; assay: PhosphoSens continuous fluorometric kinetic enzyme assay
Experimental: as §1

Akt2 [4] = target: T1, Akt2; assay: STK HTRF KinEASE activity-based assay (IC50)
Experimental: The biochemical half maximal inhibitory concentrations (IC50) were determined with the STK HTRF KinEASE assay (Cisbio) according to the manufactor’s instructions. Briefly: 5 µL Kinase solution and 2.5 µL inhibitor solution (8% DMSO in HTRF buffer) were incubated for 1 h before the reaction was started by addition of 2.5 µL starting solution containing ATP and substrate peptide. […] After reaction completion (Akt1: 60 min, Akt2: 20 min, Akt3: 15 min), 10 µL of stop solution were added. […] The quotient of both intensities were recorded at eight different inhibitor concentrations and data fit to a Hill 4-parameter equation with Quattro software suite (Quattro Research GmbH, Martinsried, Germany). Each reaction was performed in duplicates and at least three independent determinations of each IC50 were made.

Ba/F3^myr-Akt3 cells = assay: CellTiter-Glo cell viability assay; settings: for Log ratio EC50 [Akt] / EC50 [Akt], Akt3 / Akt2: cell viability assay Ba/F3 myr-Akt cells, log units
Experimental: as §2

[5] = Ki Akt2, Mean, mean of replicates
[6] = Ki Akt2, individual determinations, single replicates
[7] = read-out: kinact /Ki Akt2, Mean, mean of replicates
[8] = read-out: kinact /Ki Akt2, individual determinations, single replicates
[9] = read-out: kinact Akt2, Mean, mean of replicates
[10] = read-out: kinact Akt2, individual determinations, single replicates
[11] = parental cells, single replicates, read-out: CTG BaF3, individual determinations
[12] = Mus musculus, read-out: CTG BaF3myr-Akt2, Mean, mean of replicates
[13] = Mus musculus, read-out: CTG BaF3myr-Akt2, individual determinations, single replicates
[14] = read-out: CTG BaF3myr-Akt2, individual determinations, single replicates
[15] = Mus musculus, read-out: CTG BaF3myr-Akt1, individual determinations, single replicates
[16] = read-out: CTG BaF3myr-Akt1, individual determinations, single replicates
[17] = HTRF IC50 Akt1, Mean, mean of replicates
[18] = HTRF IC50 Akt1, individual determinations, single replicates
[19] = IC50 Akt1, HTRF, ATP at KM, 1 h preincubation
[20] = HTRF IC50 Akt3, Mean, mean of replicates
[21] = HTRF IC50 Akt3, individual determinations, single replicates
[22] = IC50 Akt3, HTRF, ATP at KM, 1 h preincubation
[23] = HTRF IC50 Akt2, Mean, mean of replicates
[24] = HTRF IC50 Akt2, individual determinations, single replicates
[25] = IC50 Akt2, HTRF, ATP at KM, 1 h preincubation
[26] = Mus musculus, read-out: CTG BaF3myr-Akt3, Mean, mean of replicates
[27] = Mus musculus, read-out: CTG BaF3myr-Akt3, individual determinations, single replicates
[28] = read-out: CTG BaF3myr-Akt3, individual determinations, single replicates
[29] = Mus musculus, BaF3, parental cells, single replicates, read-out: CTG BaF3, individual determinations

Ki (Akt2 [1]; Ki Akt2): 40 ± 3 nM | Ki (Akt2 [1]; [5]): 40.8 nM | Ki (Akt2 [1]; [6]): 42.3 nM (2×) and 37.7 nM | kinact/KI (Akt2 [1]; read-out: kinact /Ki Akt2): 8000 ± 1000 M⁻¹ s⁻¹ | kinact/KI (Akt2 [1]; [7]): 7580 M⁻¹ s⁻¹ | kinact/KI (Akt2 [1]; [8]): 7430 M⁻¹ s⁻¹ | kinact (Akt2 [1]; read-out: kinact Akt2): 0.000317 s⁻¹ | kinact (Akt2 [1]; [9]): 0.000317 s⁻¹ | kinact (Akt2 [1]; [10]): 0.000317 s⁻¹ | kinact /Ki Akt2, individual determinations (Akt2 [1]; single replicates): 0.00743 | kinact Akt2, individual determinations (Akt2 [1]; single replicates): 0.019 min⁻¹ and 0.018 min⁻¹ | EC50 (Ba/F3^myr-Akt2 cells; [12]): 7180 nM | EC50 (Ba/F3^myr-Akt2 cells; [13]): 7180 nM | EC50 (Ba/F3^myr-Akt2 cells; [14]): 6220 nM and 7660 nM | EC50 (Ba/F3^myr-Akt1 cells; Mus musculus, read-out: CTG BaF3myr-Akt1, Mean, mean of replicates): 19300 nM | EC50 (Ba/F3^myr-Akt1 cells; [15]): 21300 nM | EC50 (Ba/F3^myr-Akt1 cells; [16]): 19500 nM and 17100 nM | IC50 (Akt1 [2]; [17]): 97.6 nM | IC50 (Akt1 [2]; [18]): 113 nM and 96 nM and 84.4 nM | IC50 (Akt1 [2]; [19]): 98 ± 15 nM | Log ratio IC50 [Akt] / IC50 [Akt], Akt1 / Akt2 (Akt1 [2]): 0.27 | IC50 (Akt3; [20]): 3540 nM | IC50 (Akt3; [21]): 3080 nM and 3130 nM and 4410 nM | IC50 (Akt3; [22]): 3540 ± 617 nM | Ki (Akt1 [3]; Ki Akt1): 8 ± 2 nM | Ki (Akt1 [3]; Ki Akt1, Mean, mean of replicates): 8.12 nM | Ki (Akt1 [3]; Ki Akt1, individual determinations, single replicates): 5.5 nM and 10.9 nM | kinact/KI (Akt1 [3]; read-out: kinact /Ki Akt1): 31000 ± 11000 M⁻¹ s⁻¹ | kinact/KI (Akt1 [3]; read-out: kinact /Ki Akt1, Mean, mean of replicates): 31000 M⁻¹ s⁻¹ | kinact (Akt1 [3]; read-out: kinact Akt1): 0.000233 s⁻¹ | kinact (Akt1 [3]; read-out: kinact Akt1, individual determinations, single replicates): 0.00025 s⁻¹ | kinact Akt1, individual determinations (Akt1 [3]; single replicates): 0.012 min⁻¹ and 0.015 min⁻¹ | IC50 (Akt2 [4]; [23]): 53.5 nM | IC50 (Akt2 [4]; [24]): 53.9 nM and 59.1 nM and 47.4 nM | IC50 (Akt2 [4]; [25]): 53 ± 5 nM | EC50 (Ba/F3^myr-Akt3 cells; [26]): 22600 nM | EC50 (Ba/F3^myr-Akt3 cells; [27]): 25800 nM | EC50 (Ba/F3^myr-Akt3 cells; [28]): 26500 nM and 15600 nM
SMILES: C=CC(=O)Nc1ccc2[nH]c(=O)n(C3CCN(Cc4ccc(-c5ncc(C(=O)Nc6cnn(C)c6)cc5-c5ccccc5)cc4)CC3)c2c1 [compound 13]
EC50 (parental Ba/F3 cells; [11]): 9100 nM and 28800 nM and > 30000 nM | Log ratio EC50 [Akt] / EC50 [Akt], Akt1 / Akt2 (Ba/F3^myr-Akt1 cells): 0.43 | Log ratio EC50 [Akt] / EC50 [Akt], Akt3 / Akt2 (Ba/F3^myr-Akt3 cells): -0.50

SMILES: C=CC(=O)Nc1ccc2[nH]c(=O)n(C3CCN(Cc4ccc(-c5ncc(Cn6ccnc6)cc5-c5ccccc5)cc4)CC3)c2c1 [compound 11]
Ki (Akt2 [1]; Ki Akt2): 11 ± 1 nM | Ki (Akt2 [1]; [5]): 10.2 nM | Ki (Akt2 [1]; [6]): 8.9 nM and 11.3 nM and 10.3 nM | kinact/KI (Akt2 [1]; read-out: kinact /Ki Akt2): 20000 ± 4000 M⁻¹ s⁻¹ | kinact/KI (Akt2 [1]; [7]): 20000 M⁻¹ s⁻¹ | kinact/KI (Akt2 [1]; [8]): 25000 M⁻¹ s⁻¹ | kinact (Akt2 [1]; read-out: kinact Akt2): 0.0002 s⁻¹ | kinact (Akt2 [1]; [10]): 0.000217 s⁻¹ | kinact Akt2, individual determinations (Akt2 [1]; single replicates): 0.013 min⁻¹ and 0.009 min⁻¹ | EC50 (parental Ba/F3 cells; Mus musculus, BaF3, CTG, parental BaF3 cell line, read-out: EC50 BaF3): > 30000 nM | EC50 (parental Ba/F3 cells; Mus musculus, BaF3, parental cells, mean of replicates, read-out: CTG BaF3, Mean): > 30000 nM | EC50 (parental Ba/F3 cells; [29]): > 30000 nM | EC50 (parental Ba/F3 cells; [11]): > 30000 nM | EC50 (Ba/F3^myr-Akt2 cells; [12]): 2690 nM | EC50 (Ba/F3^myr-Akt2 cells; [13]): 3180 nM | EC50 (Ba/F3^myr-Akt2 cells; [14]): 2510 nM and 2370 nM | EC50 (Ba/F3^myr-Akt1 cells; [15]): 28200 nM | Log ratio EC50 [Akt] / EC50 [Akt], Akt1 / Akt2 (Ba/F3^myr-Akt1 cells): 1.03 | EC50 (Ba/F3^myr-Akt1 cells; [16]): 27.1 µM and > 30 µM (2×) | IC50 (Akt1 [2]; [18]): 778 nM and 571 nM and 580 nM | IC50 (Akt1 [2]; [19]): 643 ± 95 nM | Log ratio IC50 [Akt] / IC50 [Akt], Akt1 / Akt2 (Akt1 [2]): 0.93 | IC50 (Akt3; [20]): 1890 nM | IC50 (Akt3; [21]): 1360 nM and 1740 nM and 2570 nM | IC50 (Akt3; [22]): 1890 ± 621 nM | Ki (Akt1 [3]; Ki Akt1): 9 ± 2 nM | kinact/KI (Akt1 [3]; read-out: kinact /Ki Akt1): 26000 ± 2000 M⁻¹ s⁻¹ | kinact (Akt1 [3]; read-out: kinact Akt1): 0.0002 s⁻¹ | IC50 (Akt2 [4]; [23]): 76.1 nM | IC50 (Akt2 [4]; [24]): 78.2 nM and 61.8 nM and 88.3 nM | IC50 (Akt2 [4]; [25]): 76 ± 11 nM | EC50 (Ba/F3^myr-Akt3 cells; [26]): 18600 nM | EC50 (Ba/F3^myr-Akt3 cells; [27]): 18300 nM | Log ratio EC50 [Akt] / EC50 [Akt], Akt3 / Akt2 (Ba/F3^myr-Akt3 cells): -0.84 | EC50 (Ba/F3^myr-Akt3 cells; [28]): 13700 nM and 17700 nM and 24600 nM

Ki (Akt2 [1]; Ki Akt2): 4 ± 1 nM | Ki (Akt2 [1]; [5]): 4.18 nM | Ki (Akt2 [1]; [6]): 5.1 nM and 4.1 nM and 3.3 nM | kinact/KI (Akt2 [1]; read-out: kinact /Ki Akt2): 25000 ± 5000 M⁻¹ s⁻¹ | kinact/KI (Akt2 [1]; [8]): 27000 M⁻¹ s⁻¹ | kinact (Akt2 [1]; read-out: kinact Akt2): 0.0001 s⁻¹ | kinact (Akt2 [1]; [9]): 0.0001 s⁻¹ | kinact (Akt2 [1]; [10]): 0.000133 s⁻¹ | kinact Akt2, individual determinations (Akt2 [1]; single replicates): 0.00457 min⁻¹ and 0.006 min⁻¹ | EC50 (Ba/F3^myr-Akt2 cells; [12]): 7990 nM | EC50 (Ba/F3^myr-Akt2 cells; [13]): 7980 nM | EC50 (Ba/F3^myr-Akt2 cells; [14]): 5410 nM and 9280 nM | EC50 (Ba/F3^myr-Akt1 cells; [15]): > 30000 nM | EC50 (Ba/F3^myr-Akt1 cells; [16]): 28800 nM and 21100 nM | IC50 (Akt1 [2]; [17]): 1720 nM | IC50 (Akt1 [2]; [18]): 1890 nM and 1690 nM and 1560 nM | IC50 (Akt1 [2]; [19]): 1720 ± 166 nM | Log ratio IC50 [Akt] / IC50 [Akt], Akt1 / Akt2 (Akt1 [2]): 1.26 | IC50 (Akt3; [20]): 1560 nM | IC50 (Akt3; [21]): 1650 nM and 1470 nM and 1570 nM | IC50 (Akt3; [22]): 1560 ± 75 nM | IC50 (Akt2 [4]; [23]): 93.7 nM | IC50 (Akt2 [4]; [24]): 92.4 nM and 89.8 nM and 98.9 nM | IC50 (Akt2 [4]; [25]): 94 ± 4 nM | EC50 (Ba/F3^myr-Akt3 cells; [26]): 24300 nM | EC50 (Ba/F3^myr-Akt3 cells; [27]): 25300 nM | EC50 (Ba/F3^myr-Akt3 cells; [28]): 25700 nM and 21800 nM
SMILES: C=CC(=O)Nc1ccc2[nH]c(=O)n(C3CCN(Cc4ccc(-c5ncc(C(=O)NCC(C)C)cc5-c5ccccc5)cc4)CC3)c2c1 [compound 10]
EC50 (parental Ba/F3 cells; [29]): 15300 nM | EC50 (parental Ba/F3 cells; [11]): 19400 nM and > 30000 nM | Log ratio EC50 [Akt] / EC50 [Akt], Akt1 / Akt2 (Ba/F3^myr-Akt1 cells): 0.52 | Log ratio EC50 [Akt] / EC50 [Akt], Akt3 / Akt2 (Ba/F3^myr-Akt3 cells): -0.48
